# Measured values published in paper PMC9510126, “Hydrophobicity is a key determinant in the activity of arginine-rich cell penetrating peptides” (Scientific Reports, 2022).
# “Also recorded” adds a separate entry of the source. Ends that are not written are not given here.
# Assays:
# [1] = C18 reverse phase HPLC hydrophobicity of (X)TAT and d(X)TAT peptides; format: physicochemical; settings: chromatographic, C18, 0–40% B over 20 min, 0.1% TFA (pH 2); ranking within the d(X)TAT series
# Description: In order to assess the hydrophobicity contributed by each X group, the peptides were first analyzed by reverse phase HPLC using a C18 column, using gradients of buffer A (water/TFA 99.9:0.1) and buffer B (acetonitrile/water/TFA 89.9:10:0.1 v:v:v) (gradient of 0–40% B over 20 min). […] All d(X)TAT peptides eluted over a range of 10–35% acetonitrile. […] One caveat of this approach is that the buffer system used for peptide analysis is pH 2 (due to the presence of TFA, required to protonate residue side chains). However, pH 2 is not representative of the pH that CPPs may be exposed to when in contact with cells, either pH 7.2 outside the plasma membrane, or pH between 6.5 and 4.5 while inside acidic endosomes. In order to establish the relative hydrophobicities of d(X)TAT peptides at these pHs, we sought to use other techniques, including thin layer chromatography using C18, aluminum oxide or silica stationary phases. Unfortunately, the arginine-rich peptides could not be separated on these systems. To solve this problem, each individual X group was synthesized, using acetylated and amidated N and C-terminal positions to mimic the peptide backbone found in the d(X)TAT constructs (Fig. 1A, Figure S11). Each Ac-X-NH2 group was analyzed by HPLC and by RP18 TLC, using 40% acetonitrile and 60% PBS as mobile phase. The HPLC elutions of Ac-X-NH2 correlated with the HPLC elutions of their respective d(X)TAT counterparts (Fig. 1C). Similarly, the relative hydrophobicities of Ac-X-NH2 determined by TLC (measured as 1-Rf) at pH 4 or 8 were in good agreement with the results obtained by HPLC (Fig. 1D). […] In the case of DEAC, the protonation state of the fluorophore has, to our knowledge, not been characterized.
# All rpHPLC retention times were analyzed using an Agilent HP 1200 series instrument on an analytical Phenomenex Luna Omega Polar C18 column (5 μm, 4.6 mm × 250 mm). The flow rate was 2 mL/min, and detection was at 214 nm. A binary solvent system was used comprising 99.9% H2O/0.1% TFA (solvent A) and 90% Acetonitrile/9.9% H2O/0.1% TFA (solvent B). […]
# MDA-MB-231 cells = test: Staining of endosomes with LysoTracker (puncta per cell); format: cell-based, human; settings: MDA-MB-231, 1 h with peptide (X = K(Ac), WW, FFLIP at 10, 1.5, 1.5 μM), LysoTracker Green DND-26 500 nM 5 min, biological triplicates
# Description: Given that hydrophobicity of the d(X)TAT peptides appears to contribute to their membrane permeation activities, we next sought to establish whether this relationship could be recapitulated with membrane models, i.e. lipid bilayers. To establish which membrane system to test, we first aimed to test whether d(X)TAT peptides generally recapitulate the mechanism of cell entry previously determined with dfTAT. For this purpose, the delivery of TMR-k5 was performed in cells transfected with dominant-negative (DN) rab7(T22N), a protein that disrupts trafficking from early endosomes to late endosomes[29],[30]. For these experiments, d(WW)TAT and d(FFLIP)TAT were chosen as two “high activity/hydrophobicity” d(X)TAT representatives. […] In this case, approximately 5% of cells remained positive for TMR-k5 nuclear staining. […] To further probe the cell penetration mechanism, the number of endosomal organelles stained by Lysotracker in cells before and after delivery was quantified. The rationale behind this assay is that lysotracker accumulates in acidified organelles, typically late endosomes and lysosomes, that endosomal membrane leakage causes an increase of endosomal pH (presumably via leakage of luminal H^+ into the cytosol), and that, consequently, endosomes rendered potentially leaky by d(X)TAT peptides will not be stained by lysotracker.
# For the quantification of acidic vesicles, cells were treated with LysoTracker Green DND-26 (500 nM) for 5 min. Alternatively, cells were pretreated with L-Leu-L-Leu methyl ester (LLOME; Sigma-Aldrich) incubated at 1 mM for 10 min, or bafilomycin (Sigma-Aldrich) at 1 µM for 4 h, and then stained with LysoTracker. Likewise, cells were pretreated with d(X)TAT peptides (X = K(Ac), WW, or FFLIP at 10, 1.5, and 1.5 μM) for 1 h. Cells were then washed an stained with LysoTracker immediately or after 12 h incubation in DMEM. For all conditions, fluorescence microscopy images were acquired using the 100× objective on an Olympus IX-81 microscope. ImageJ was used to calculate the number of LysoTracker-stained puncta per cell, as well as the area of each individual puncta. This analysis was performed for 50 cells imaged for each condition and reproduced in biological triplicates.
# [2] = Zeta potential of BMP LUVs in contact with peptides; format: binding; settings: 0.33 µM peptide, 50 µM lipid (P:L 1:150), PBS pH 5.5, 25 °C, triplicate
# Description: The interaction partners of CPPs that may mediate direct plasma membrane translocation remain undefined. It is therefore unclear which liposome system can be used to probe this activity. […] This permeabilization is consistent with a leaky fusion process, where peptide-induced contact between liposomes is required for leakage. In order to assess whether similar processes are involved with peptides of the d(X)TAT series, LUVs were loaded with calcein to probe leakage. LUVs were prepared with either 65:15:20 PC:PE:Chol or 77:19:4 BMP:PC:PE, lipid compositions consistent with plasma membrane /early endosomes (PM/EE) bilayers or late endosome (LE) bilayers, respectively[36],[37]. Peptides were added to liposomes suspensions at various peptide-to-lipid ratios, and the release of calcein was monitored by gel filtration. […] The mixtures were then added to a folded capillary zeta cell for measurement on a Zetasizer Nano-zs (Malvern). Instrument was set to hold at 25 °C and automatically determine the optimal voltage and attenuator positions for each measurement. Each sample was set to be measured three times by the instrument and the average of these measurements was used to determine the zeta potential for a single sample. This experiment was performed in triplicate for each condition.
substance,measurement,setting,value
d(K(Ac))TAT: disulfide dimer of CXRKKRRQRRRG with X = lysine conjugated to an acetyl group (CK(Ac)RKKRRQRRRG-NH2; also: disulfide dimer),relative hydrophobicity of X group by C18 HPLC,[1],least hydrophobic; also recorded: lowest peptide on the hydrophobicity scale
same,lysotracker stained endosomes (puncta per cell) immediately after incubation,MDA-MB-231 cells,did not affect lysotracker staining
same,effect on apparent zeta potential of BMP-rich LUVs,[2],largest effect
